Legend:
[1] = Singlet oxygen formation in aqueous phase (SOSG fluorescence, laser irradiation); conditions: 5 μg/mL in aqueous phase with SOSG; laser 670 nm, 4 J/cm^2, 20 mW/cm^2, 200 seconds
Protocol: Singlet oxygen sensor green (SOSG), which is a fluorescent detecting substance that directly reacts with singlet oxygen, was dispersed in an aqueous phase, oleic acid-polyethylene glycol-chlorin e6 (5 μg/mL) was added thereto, and the resulting mixture was mixed. As a comparative example, chlorin e6 (5 μg/mL) or polyethylene glycol-chlorin e6 (5 μg/mL) was used. When OA-PEG-Ce6 and SOSG coexisted in the aqueous phase, the mixture was irradiated with a laser (670 nm) (4 J/cm^2, 20 mW/cm^2, 200 seconds), and the degree of fluorescence was measured by an RF analyzer.

[2] = Dispersion in aqueous phase; format: physicochemical; conditions: water
[3] = Obesity amelioration: body weight and fat mass after photodynamic therapy; format: in vivo, C57BL6 mice; conditions: high-fat diet mice, oral 10 mg/kg (based on chlorin e6), 22 days; for body weight, last day relative to before therapy, administration+light irradiation / fat mass, last day relative to before therapy, administration+light irradiation: laser 0.7 J/cm^2, repeated after 4 days; for fat mass, last day relative to before therapy, administration+light irradiation / fat mass, last day relative to before therapy, administration only: EchoMRI; for body weight, last day relative to before therapy, administration only / fat mass, last day relative to before therapy, administration only: no light
Protocol: After 4 days, photodynamic therapy was performed once again by the same method, and then, changes in body weight and fat mass were measured every other day for 22 days. The experimental results were shown in a bar graph by dividing the body weight and fat mass on the last day of the experiment by the body weight and fat mass before the photodynamic therapy and then converting the obtained values into percentages. Fat mass was measured with EchoMRI-500 (Echo MRI, Houston, TX).

GIP = assay: Plasma GIP by ELISA after photodynamic therapy; format: in vivo, C57BL6 mice; conditions: high-fat diet mice, oral 10 mg/kg (based on chlorin e6), after 22 days; for plasma GIP concentration, administration+light irradiation: laser 0.7 J/cm^2, repeated after 4 days; for plasma GIP concentration, administration only: no light
Protocol: (§1) After 4 days, photodynamic therapy was performed once again by the same method, and then, mouse blood was collected after 22 days. Plasma was isolated from blood to measure the concentrations of GIP (Merk Millipore, USA) and insulin (anti-insulin+pro insulin antibody (10 μg/ml, ab8304, Abcam)) by enzyme-linked immunosorbent assay (ELISA).

insulin = assay: Plasma insulin by ELISA after photodynamic therapy; format: in vivo, C57BL6 mice; conditions: high-fat diet mice, oral 10 mg/kg (based on chlorin e6), after 22 days; for plasma insulin concentration, administration+light irradiation: laser 0.7 J/cm^2, repeated after 4 days; for plasma insulin concentration, administration only: no light
Protocol: as §1

[4] = tested on: Human duodenal cells (HUTU-80); assay: Cytotoxicity and phototoxicity, MTT test; conditions: for treatment concentration at which cell viability decreased, light irradiation group: laser 671 nm, 2 J/cm^2, concentration based on chlorin e6
Protocol: (§3) Human duodenal cells (HUTU-80) and canine kidney cells (MDCK) were aliquoted at a density of 1×10^4 cells/well in 0.2 ml portions in each well of a 96-well plate and cultured under conditions of 37° C. and 5% CO2 for 24 hours. On the next day, each well was treated with OA-PEG-Ce6 or polyethylene glycol-chlorin e6 at a concentration of 0.25 to 10 μg/ml (based on chlorin e6), and the corresponding treatment was performed by dividing a light non-irradiation group and a light irradiation group (irradiated with a laser with a wavelength of 671 nm at an intensity of 2 J/cm^2). Thereafter, cell viability was confirmed by the MTT test method.

[5] = tested on: canine kidney cells (MDCK); assay: Cytotoxicity and phototoxicity, MTT test; conditions: 0.25 to 10 μg/ml (based on chlorin e6), no light
Protocol: as §3

[6] = tested on: Human duodenal cells (HUTU-80); assay: Intracellular uptake by flow cytometry; format: cell-based; conditions: 2 μg/ml (based on chlorin e6), 1 hour and 4 hours
Protocol: Thereafter, the cells were treated with OA-PEG-Ce6 and polyethylene glycol-chlorin e6 as a comparative group at a concentration of 2 μg/ml (based on chlorin e6) for 1 hour and 4 hours, respectively. Thereafter, the cells were washed three times with DPBS, collected, and analyzed by a flow cytometer (BD FACSCanto II).

[7] = tested on: Human duodenal cells (HUTU-80); assay: Intracellular distribution by confocal laser scanning microscopy; format: cell-based; conditions: 2 μg/ml (based on chlorin e6), 1 hour; CLSM
Protocol: (§2) Human duodenal cells (HUTU-80) and canine kidney epithelial cells (MDCK) were treated with OA-PEG-Ce6 and polyethylene glycol-chlorin e6 at a concentration of 2 μg/ml (based on chlorin e6) for 1 hour. Thereafter, the cells were washed three times with DPBS and fixed with 4% paraformaldehyde, and the cell nuclei were stained at 4° C. Thereafter, cell images were confirmed under a confocal laser scanning microscope (CLSM).

[8] = tested on: canine kidney epithelial cells (MDCK); assay: as above; format: cell-based; conditions: 2 μg/ml (based on chlorin e6), 1 hour; CLSM
Protocol: as §2

[9] = tested on: Human duodenal cells (HUTU-80); assay: Intracellular active oxygen formation (DCFDA, confocal microscope); format: cell-based; conditions: 2 μg/ml (based on chlorin e6), 2 hours, light 0, 0.5, 1 and 1.5 J/cm^2, increasing intensity
Protocol: Thereafter, the cells were treated with OA-PEG-Ce6 at a concentration of 2 μg/ml (based on chlorin e6) for 2 hours, and washed three times with DPBS. The cells were treated with DCFDA diluted in DPBS, cultured for 30 minutes, and further washed three times with DPBS. The cells were irradiated with a light with an intensity of 0, 0.5, 1 and 1.5 J/cm^2 to induce a reaction between DCFDA incorporated into the cells and singlet oxygen. Fluorescence appears when the two substances react. Thereafter, the cells were fixed with 4% paraformaldehyde, the cell nuclei were stained with DAPI, and images were confirmed under a confocal microscope.

[10] = tested on: Human duodenal cells (HUTU-80); assay: Competitive inhibition of uptake in presence of fatty acid (flow cytometry); format: cell-based; conditions: 10 μg/ml (based on chlorin e6) with 0.10 to 10.00 mg/ml oleylethanolamine, 2 hours
Protocol: Thereafter, the cells were treated with both 0.10 to 10.00 mg/ml oleylethanolamine and 10 μg/ml OA-PEG-Ce6 (based on chlorin e6) and cultured for 2 hours. Thereafter, the cells were washed three times with DPBS, collected, and analyzed by a flow cytometer (BD FACSCanto II).

[11] = target: T1, HEK-293 cells expressing GPR119 (Homo sapiens, UniProt Q8TDV5); assay: Uptake according to GPR119 expression level (flow cytometry); format: cell-based; conditions: GPR119 expression vector 0, 4 and 8 μg, 2 μg/ml (based on chlorin e6)
T1 construct: expressed in transfected cells; host or cells: HEK-293
T1 sequence (Q8TDV5 1-335): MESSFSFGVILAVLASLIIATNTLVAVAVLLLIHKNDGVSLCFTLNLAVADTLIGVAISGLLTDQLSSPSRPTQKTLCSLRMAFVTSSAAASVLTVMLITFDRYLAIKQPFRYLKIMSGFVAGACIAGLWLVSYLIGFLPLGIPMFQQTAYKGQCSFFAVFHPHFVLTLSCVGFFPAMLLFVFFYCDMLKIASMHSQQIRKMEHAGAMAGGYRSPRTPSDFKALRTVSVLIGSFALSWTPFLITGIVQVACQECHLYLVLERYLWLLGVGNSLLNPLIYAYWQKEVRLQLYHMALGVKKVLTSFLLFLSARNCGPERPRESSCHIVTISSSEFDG
Protocol: In order to confirm the mechanism by which OA-PEG-Ce6 targets enteroendocrine cells, human fetal kidney cells (HEK-293) expressing G protein-coupled receptor 119 (GPR119), which is a receptor known to recognize fatty acids, were produced.
After 24 hours, a GPR119 expression vector (0, 4 and 8 μg) and polyethyleneimine (PEI) were added to a serum-free medium and mixed for 30 minutes so as to form a complex, and then each cell was treated with the complex for 4 hours. Thereafter, the medium was replaced with a medium containing bovine serum, and GPR119 was allowed to be expressed by culturing the cells for 48 hours. It was confirmed by western blotting whether GPR119 was expressed.
HEK-293 cells expressing GPR119 were treated with OA-PEG-Ce6 and polyethylene glycol-chlorin e6 as a comparative group at a concentration of 2 μg/ml (based on chlorin e6) for 1 hour and 4 hours, respectively. Thereafter, the cells were washed three times with DPBS, collected, and analyzed by a flow cytometer (BD FACSCanto II).

[12] = tested on: Human duodenal cells (HUTU-80)
Protocol: as §3

[13] = mouse, in vivo, po, 10 mg/kg
Protocol: C57BL6 mice were fed a high-fat diet for 8 weeks to induce obese and diabetic conditions, and were divided into a control (PBS), a light irradiation group (Laser), a polyethylene glycol-chlorin e6 adiministration group (PC), a polyethylene glycol-chlorin e6 adiministration+light irradiation group (PCL), an OA-PEG-Ce6 adiministration group (OPC) and an OA-PEG-Ce6 adiministration+light sirradiation group (OPCL). Each group was orally administered the treated substance at a concentration of 10 mg/kg (based on chlorin e6), and after 30 minutes, a catheter was injected for endoscopic access and a laser was irradiated through the mouth.
Meanwhile, the accumulation degree of photosensitizer in the removed duodenum was confirmed with a fluorescence-labeled organism bioimaging instrument (Neo Science), and the fluorescence intensity of each tissue was graphically shown.

C=Cc1c(C)c2cc3nc(c(CC(=O)O)c4[nH]c(cc5nc(cc1[nH]2)C(C)=C5CC)c(C)c4C(=O)O)[C@@H](CCC(=O)O)[C@@H]3C [chlorin e6]
ability to form active oxygen (singlet oxygen) [1]: could hardly form active oxygen | dispersion in the aqueous phase [2]: could not be dispersed in the aqueous phase

polyethylene glycol-chlorin e6 [reference compound]
dispersion in the aqueous phase [2]: well dispersed in water | body weight, last day relative to before therapy, administration+light irradiation [3]: 90.1% | fat mass, last day relative to before therapy, administration+light irradiation [3]: 60.0% | body weight, last day relative to before therapy, administration only [3]: 93.1% | fat mass, last day relative to before therapy, administration only [3]: 68.4% | plasma GIP concentration, administration+light irradiation (GIP): 339.6 pg/mL | plasma GIP concentration, administration only (GIP): 289.1 pg/mL | plasma insulin concentration, administration+light irradiation (insulin): 374.3 pg/mL | plasma insulin concentration, administration only (insulin): 304.3 pg/mL | change in cell viability, light non-irradiation group ([4]; 0.25 to 10 μg/ml (based on chlorin e6), no light): almost no change in cell viability | treatment concentration at which cell viability decreased, light irradiation group [4]: ≥ 2.5 µg/mL | change in cell viability, light non-irradiation group [5]: no change in the cell viability

oleic acid-polyethylene glycol-chlorin e6 [OA-PEG-Ce6]
dispersion in the aqueous phase [2]: well dispersed in water | amount absorbed by the cells [6]: more absorbed by the cells than polyethylene glycol-chlorin e6 (PC) | incorporation into cells versus conjugate without targeting substance [7]: more incorporated into cells than polyethylene glycol-chlorin e6 (PC) | incorporation into HUTU-80 versus MDCK cells [8]: more incorporated into human duodenal cells (HUTU-80) than in canine kidney epithelial cells (MDCK) | intracellular active oxygen generation (DCFDA green fluorescence) [9]: generated a large amount of active oxygen | intracellular uptake (fluorescence intensity) with increasing oleylethanolamine [10]: intracellular uptake was reduced | intracellular accumulation rate with increasing GPR119 expression [11]: partially increased | body weight, last day relative to before therapy, administration+light irradiation [3]: 83.6% | fat mass, last day relative to before therapy, administration+light irradiation [3]: 47.2% | body weight, last day relative to before therapy, administration only [3]: 91.1% | fat mass, last day relative to before therapy, administration only [3]: 62.8% | plasma GIP concentration, administration+light irradiation (GIP): 177.7 pg/mL | plasma GIP concentration, administration only (GIP): 435.5 pg/mL | plasma insulin concentration, administration+light irradiation (insulin): 758.0 pg/mL | plasma insulin concentration, administration only (insulin): 210.5 pg/mL | concentration at which cell viability decreased, light non-irradiation group [12]: ≥ 2.5 µg/mL | accumulation degree of photosensitizer in the duodenum [13]: remarkably large amount of photosensitizer was accumulated | treatment concentration at which cell viability decreased, light irradiation group [4]: ≥ 0.5 µg/mL

From patent US12702712B2, “Enteroendocrine cell-targeting polymer substance conjugated with photosensitizer, and medical use thereof for ameliorating metabolic disease” (The Catholic University of Korea Industry-Academic …, priority 2020, dated 2026)
